{"source": "PubChem BioAssay AID720616", "about": "(Broad Institute, 2013)", "test_system": "U-251 glioblastoma viability, CellTiter-Glo ATP luminescence", "experiment": "cytotoxicity in U-251 glioma cells – cell-based, CellTiter-Glo ATP luminescence, several timepoints, dry powder, mechanism study for HRAS target identification, late-stage follow-up (AID 720616)"}
{"smiles": "C#CCCCC(=O)NCCOCCOCCOc1ccc(N(C(=O)CCl)C(C(=O)NCCc2ccccc2)c2cccs2)cc1Cl", "note": "(centres undefined)", "values": [{"measurement": "AC50", "setting": "measured here: 8 h treatment", "value": 7550, "unit": "nM"}, {"measurement": "AC50", "setting": "measured here: 24 h treatment", "value": 4090, "unit": "nM"}, {"measurement": "AC50", "setting": "measured here: 48 h treatment", "value": 10200, "unit": "nM"}]}
{"smiles": "COc1ccc(N(C(=O)CCl)C(C(=O)NCCc2ccccc2)c2cccs2)cc1Cl", "note": "(centres undefined)", "values": [{"measurement": "AC50", "setting": "measured here: 8 h treatment", "value": 734, "unit": "nM"}, {"measurement": "AC50", "setting": "measured here: 24 h treatment", "value": 709, "unit": "nM"}, {"measurement": "AC50", "setting": "measured here: 48 h treatment", "value": 1380, "unit": "nM"}]}
{"smiles": "CC(C)(C)OC(=O)NCCOCCOCCOc1ccc(N(C(=O)CCl)C(C(=O)NCCc2ccccc2)c2cccs2)cc1Cl", "note": "(centres undefined)", "values": [{"measurement": "AC50", "setting": "measured here: 8 h treatment", "value": 912, "unit": "nM"}, {"measurement": "AC50", "setting": "measured here: 24 h treatment", "value": 1220, "unit": "nM"}, {"measurement": "AC50", "setting": "measured here: 48 h treatment", "value": 2210, "unit": "nM"}]}
{"smiles": "Cc1onc(C(=O)N2CCN(C(c3ccc(Cl)cc3)c3ccc(Cl)cc3)CC2)c1[N+](=O)[O-]", "values": [{"measurement": "AC50", "setting": "measured here: 24 h treatment", "value": "> 70000", "unit": "nM"}, {"measurement": "AC50", "setting": "measured here: 48 h treatment", "value": "> 70000", "unit": "nM"}]}
{"smiles": "COC(=O)c1ccc([C@@H]2c3[nH]c4ccccc4c3C[C@@H](C(=O)OC)N2C(=O)CCl)cc1", "values": [{"measurement": "AC50", "setting": "measured here: 8 h treatment", "value": 1100, "unit": "nM"}, {"measurement": "AC50", "setting": "measured here: 24 h treatment", "value": 856, "unit": "nM"}, {"measurement": "AC50", "setting": "measured here: 48 h treatment", "value": 1250, "unit": "nM"}]}
